According to patent US12384797B2, “Thioeno[3,2-b] pyridin-7-amine compounds for treating familial dysautonomia” (PTC THERAPEUTICS, INC., priority 2019, dated 2025):

System: Elongator complex protein 1 (ELP1, also referred to as IKBKAP)
Experiment: IKBKAP-HTRF assay (IKBKAP protein in lysates of FD patient-derived fibroblasts)
Format: cell-based, human
Conditions: 48 hours incubation, 7-point concentration curve
Procedure, shortened: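 Sandwich HTRF with two labelled anti-IKAP antibodies (overnight, 4 °C) measured IKBKAP in lysates of FD patient fibroblasts. Cells were exposed to compound for 48 h at 37 °C (7-point curve, 3.16-fold steps, triplicates). EC2x is the dose doubling IKBKAP versus DMSO control; MFI is sample ΔF divided by vehicle ΔF.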

| Compound | EC2x for IKBKAP protein expression (concentration producing two times the amount of IKBKAP protein vs DMSO vehicle control) | MFI (maximum fold increase in IKBKAP protein abundance relative to the vehicle control) |
| --- | --- | --- |
| N[C@@H](CO)Cc1sc2c(NCc3ccco3)cc(Cl)nc2c1Cl [Compound 39, (2R)-2-amino-3-(3,5-dichloro-7-{[(furan-2-yl)methyl]amino}thieno[3,2-b]pyridin-2-yl)propan-1-ol] | ***** (≤0.005 μM is indicated by five stars (*****)) | ***** (>4.9 is indicated by five stars (*****)) |
| N[C@@H](CCO)Cc1sc2c(NCc3ccccc3F)cc(Cl)nc2c1Br [Compound 100, (3S)-3-amino-4-(3-bromo-5-chloro-7-{[(2-fluorophenyl)methyl]amino}thieno[3,2-b]pyridin-2-yl)butan-1-ol] | ***** (≤0.005 μM is indicated by five stars (*****)) | ***** (>4.9 is indicated by five stars (*****)) |
| CS(=O)(=O)C[C@H](N)Cc1sc2c(NCc3ccco3)cc(Cl)nc2c1Cl [Compound 113, 2-[(2R)-2-amino-3-(methanesulfonyl)propyl]-3,5-dichloro-N-[(furan-2-yl)methyl]thieno[3,2-b]pyridin-7-amine] | **** (between >0.005 μM and ≤0.02 μM is indicated by four stars (****)) | ***** (>4.9 is indicated by five stars (*****)) |
| N[C@H](CF)Cc1sc2c(NCc3cccs3)cc(Cl)nc2c1Br [Compound 63, 2-[(2S)-2-amino-3-fluoropropyl]-3-bromo-5-chloro-N-[(thiophen-2-yl)methyl]thieno[3,2-b]pyridin-7-amine] | *** (between >0.02 μM and ≤0.5 μM is indicated by three stars (***)) | ** (between >1.9 and ≤2.9 is indicated by two stars (**)) |
| Cc1c(C[C@@H](N)[C@H](C)F)sc2c(NCc3nccs3)cc(Cl)nc12 [Compound 128, 2-[(2R,3S)-2-amino-3-fluorobutyl]-5-chloro-3-methyl-N-[(1,3-thiazol-2-yl)methyl]thieno[3,2-b]pyridin-7-amine] | ***** (≤0.005 μM is indicated by five stars (*****)) | ***** (>4.9 is indicated by five stars (*****)) |
| N#Cc1cc(NCc2cccs2)c2scc(Br)c2n1 [Compound 11, 3-bromo-7-{[(thiophen-2-yl)methyl]amino}thieno[3,2-b]pyridine-5-carbonitrile] | *** (between >0.02 μM and ≤0.5 μM is indicated by three stars (***)) | ** (between >1.9 and ≤2.9 is indicated by two stars (**)) |
| N[C@@H](CCO)Cc1sc2c(NCc3nccs3)cc(Cl)nc2c1Br [Compound 89, (3S)-3-amino-4-(3-bromo-5-chloro-7-{[(1,3-thiazol-2-yl)methyl]amino}thieno[3,2-b]pyridin-2-yl)butan-1-ol] | ***** (≤0.005 μM is indicated by five stars (*****)) | ***** (>4.9 is indicated by five stars (*****)) |
| Cc1c([C@@H](N)C(C)C)sc2c(NCc3ccco3)cc(Cl)nc12 [Compound 30, 2-[(1S)-1-amino-2-methylpropyl]-5-chloro-N-[(furan-2-yl)methyl]-3-methylthieno[3,2-b]pyridin-7-amine] | * (An EC2x>1 μM is indicated by one star (*)) | * (An MFI≤1.9 is indicated by one star (*)) |
| Cc1c(C[C@@H](N)CC#N)sc2c(NCc3cccs3)cc(Cl)nc12 [Compound 105, (3S)-3-amino-4-(5-chloro-3-methyl-7-{[(thiophen-2-yl)methyl]amino}thieno[3,2-b]pyridin-2-yl)butanenitrile] | ***** (≤0.005 μM is indicated by five stars (*****)) | ***** (>4.9 is indicated by five stars (*****)) |
| N[C@@H](COC(F)(F)F)Cc1sc2c(NCc3nccs3)cc(Cl)nc2c1Br [Compound 64, 2-[(2R)-2-amino-3-(trifluoromethoxy)propyl]-3-bromo-5-chloro-N-[(1,3-thiazol-2-yl)methyl]thieno[3,2-b]pyridin-7-amine] | **** (between >0.005 μM and ≤0.02 μM is indicated by four stars (****)) | ***** (>4.9 is indicated by five stars (*****)) |
| C[C@H](N)C(F)c1sc2c(NCc3nccs3)cc(Cl)nc2c1Br (stereo partly drawn) [Compound 161, 2-[(2S)-2-amino-1-fluoropropyl]-3-bromo-5-chloro-N-[(1,3-thiazol-2-yl)methyl]thieno[3,2-b]pyridin-7-amine] | ***** (≤0.005 μM is indicated by five stars (*****)) | *** (between >2.9 and ≤3.9 is indicated by three stars (***)) |
| N#Cc1csc2c(NCc3cccs3)cc(Cl)nc12 [Compound 13, 5-chloro-7-{[(thiophen-2-yl)methyl]amino}thieno[3,2-b]pyridine-3-carbonitrile] |  | ***** (>4.9 is indicated by five stars (*****)) |
| Clc1cc(NCc2ccco2)c2scc(Br)c2n1 [Compound 7, 3-bromo-5-chloro-N-[(furan-2-yl)methyl]thieno[3,2-b]pyridin-7-amine] | *** (between >0.02 μM and ≤0.5 μM is indicated by three stars (***)) | ***** (>4.9 is indicated by five stars (*****)) |
| C[C@H](N)Cc1sc2c(NCc3cccs3)cc(C#N)nc2c1Br [Compound 101, 2-[(2S)-2-aminopropyl]-3-bromo-7-{[(thiophen-2-yl)methyl]amino}thieno[3,2-b]pyridine-5-carbonitrile] | ***** (≤0.005 μM is indicated by five stars (*****)) | ***** (>4.9 is indicated by five stars (*****)) |
| N[C@@H](CF)Cc1sc2c(NCc3ccco3)cc(Cl)nc2c1Cl [Compound 94, 2-[(2R)-2-amino-3-fluoropropyl]-3,5-dichloro-N-[(furan-2-yl)methyl]thieno[3,2-b]pyridin-7-amine] | ***** (≤0.005 μM is indicated by five stars (*****)) | **** (between >3.9 and ≤4.9 is indicated by four stars (****)) |
| Cc1c(C[C@@H](N)CF)sc2c(NCc3ccco3)cc(Cl)nc12 [Compound 81, 2-[(2R)-2-amino-3-fluoropropyl]-5-chloro-N-[(furan-2-yl)methyl]-3-methylthieno[3,2-b]pyridin-7-amine] | ***** (≤0.005 μM is indicated by five stars (*****)) | ***** (>4.9 is indicated by five stars (*****)) |
| N[C@@H](CCF)Cc1sc2c(NCc3ccco3)cc(Cl)nc2c1Cl [Compound 93, 2-[(2S)-2-amino-4-fluorobutyl]-3,5-dichloro-N-[(furan-2-yl)methyl]thieno[3,2-b]pyridin-7-amine] | ***** (≤0.005 μM is indicated by five stars (*****)) | ***** (>4.9 is indicated by five stars (*****)) |
| C=C[C@H](N)Cc1cc2nc(Cl)cc(NCc3ccco3)c2s1 [Compound 119, 2-[(2R)-2-aminobut-3-en-1-yl]-5-chloro-N-[(furan-2-yl)methyl]thieno[3,2-b]pyridin-7-amine] | **** (between >0.005 μM and ≤0.02 μM is indicated by four stars (****)) | **** (between >3.9 and ≤4.9 is indicated by four stars (****)) |
| Cc1c(C[C@@H](N)C(=O)Nc2ccnn2C)sc2c(NCc3ccco3)cc(Cl)nc12 [Compound 145, 3-(5-chloro-7-{[(furan-2-yl)methyl]amino}-3-methylthieno[3,2-b]pyridin-2-yl)-N-(1-methyl-1H-pyrazol-5-yl)-D-alaninamide] | *** (between >0.02 μM and ≤0.5 μM is indicated by three stars (***)) | ***** (>4.9 is indicated by five stars (*****)) |
| N[C@@H](CF)Cc1sc2c(NCc3nccs3)cc(Cl)nc2c1Br [Compound 70, 2-[(2R)-2-amino-3-fluoropropyl]-3-bromo-5-chloro-N-[(1,3-thiazol-2-yl)methyl]thieno[3,2-b]pyridin-7-amine] | ***** (≤0.005 μM is indicated by five stars (*****)) | ***** (>4.9 is indicated by five stars (*****)) |
| 2-[(2S)-2-aminobutyl]-5-chloro-3-cyclopropyl-N-[(thiophen-2-yl)methyl]thieno[3,2-b]pyridin-7-amine [Compound 75] | *** (between >0.02 μM and ≤0.5 μM is indicated by three stars (***)) | ***** (>4.9 is indicated by five stars (*****)) |
| Cc1c(C[C@H](C)N)sc2c(NCc3cccs3)cc(C#N)nc12 [Compound 54, 2-[(2S)-2-aminopropyl]-3-methyl-7-{[(thiophen-2-yl)methyl]amino}thieno[3,2-b]pyridine-5-carbonitrile] | ***** (≤0.005 μM is indicated by five stars (*****)) | ***** (>4.9 is indicated by five stars (*****)) |
